The results in this text go back to patent US12577273B2, “Small molecule modulators of gut bacterial bile acid metabolism” (priority 2019, dated 2026).

The subject of one data set is conventional mice. Nature of the data set: Food intake of conventional mice dosed with 3S-LCA-FMK. The format is in vivo, mouse. The settings on record: compared to mice dosed with vehicle.
Data set [1] deals with C57BL/6 mice. The settings on record: for detection in circulating plasma: in vivo.
Data set [2] relates to BSH activity in conventional mouse feces. Nature of the data set: Screen of inhibitors in conventional mouse feces. The data set is classed as biochemical. The protocol: Screen of Inhibitors in Conventional Mouse Feces. […] The tubes were then frozen in dry ice for 5 mins and upon thawing were diluted with an equal volume of methanol. […] The supernatant was removed into a clean eppendorf tube and centrifuged again. […] The concentration of product detected from these assays was reported directly.

In the next data set the test system is NCI-H716 cells. Nature of the data set: Off-target profiling in mammalian cells using 7-N3. The format is cell-based, human. As for the experimental part:
Off-Target profiling in Mammalian Cells using 7-N3. The human epithelial cell line NCI-H716 was used to study interactions with mammalian proteins. 10 μM 7-N3 (10 mM stock in DMSO) or 1 uL DMSO (for control) were added to ˜8×10^6 cells in 1 ml DPBS (HiMedia) and incubated for 1 h. Cells were collected in 15 ml Falcon tubes and washed 2 times in 15 ml DBPS by centrifugation at 500 g for 5 mins. A 3rd wash by centrifugation was performed in 1 mM solution of cOmplete™ Protease Inhibitor Cocktail (Roche, Switzerland) in DPBS. Cells were resuspended in 250 ul of DPBS with 1 mM cOmplete™ Protease Inhibitor Cocktail and sonicated at 50% amplitude for 2 secs followed by 30 secs on ice for 3 cycles. The lysate was centrifuged at 15,000 g for 15 mins at 4° C. The supernatant was removed and protein concentration was measured by Bradford assay. The lysates were then subjected to click reaction as per “Click Chemistry for In-gel Fluorescence Imaging” for in-gel fluorescence and “Click Chemistry for MS/MS on Mammalian Lysate” for mass spectrophotometer-based quantification and identification.
Click Chemistry for In-gel Fluorescence Imaging. Click reactions were performed on 25 μL scale. […]
Proteomic Analysis of Click-Tagged Proteins. […] Indicated bands were excised, subjected to in-gel digestion, and extracted peptides analyzed by nanoflow LC-MS/MS as described.^53

A further data set deals with B. adolescentis BSH. Nature of the data set: Target validation and off-target profiling in B. adolescentis using 7-N3. The data set is classed as cell-based, Bifidobacterium adolescentis L2-32. The protocol:
Target Validation and Off-target Profiling in B. adolescentis using 7-N3. Pilot studies with 7-N3 were performed using B. adolescentis (Gram positive) and B. theta (Gram negative). We chose to use B. adolescentis due to the stronger total fluorescent signal detected by-in gel fluorescence. […] Cultures were allowed to grow anaerobically at 37° C. for 21 h. 10 μM 7-N3 (10 mM stock in DMSO) or […] DMSO (to control tubes) was then added to the cultures and incubated anaerobically at 37° C. for 1 h. The cultures were centrifuged at 2,500 g at 4° C. for 15 mins. The media was decanted and cells were resuspended in PBS containing 1 mM TCEP and 1 mM PMSF and centrifuged 4,200 rpm at 4° C. for 15 mins. The buffer was decanted and the cells were suspended in 300 μL of fresh buffer and transferred to homogenizing tubes (Precellys lysing kit tough micro-organism lysing VK05 tubes) with ceramic beads. The suspension was then homogenized (5000 speed for 90 s*2, 6500 speed for 60 s) and spun down for 20 min at 15,000 g at 4° C. The supernatant was removed and the concentration of proteins in the lysate was quantified by Bradford assay. The lysates were then subjected to click reaction as per “Click Chemistry for In-gel Fluorescence Imaging” for fluorescence imaging and “Click Chemistry for MS/MS on Bacterial Lysate” for mass spectrophotometer-based quantification and identification.
Cultures were allowed to grow anaerobically at 37° C. for 21 h. Decreasing concentrations of 7 were added to different tubes and the cultures were incubated anaerobically at 37° C. for 1 h. 10 μM 7-N3 was then added to the cultures and incubated anaerobically at 37° C. for an additional hour. The cultures were further processed as per the reported method in “Target Validation and Off-target Profiling in B. adolescentis using 7-N3” and “Click Chemistry for In-gel Fluorescence Imaging”.
Click Chemistry for In-gel Fluorescence Imaging. Click reactions were performed on 25 μL scale. Lysates (normalized to 1.5 mg/mL for both bacterial and mammalian cells) pretreated with 10 μM Compound 7-N3 were incubated with 100 μM fluor 488-alkyne (10 mM stock in DMSO), 100 μM CuBr (5 mM stock in DMSO), and 100 μM Tris[(1-benzyl-1H-1,2,3-triazol-4-yl)methyl]amine (5 mM stock in 4:1 t-BuOH:DMSO) for 1 h at 37° C. in the dark. 10 μL of 2×Laemmli buffer (containing 5% β-mercaptoethanol) was added to the reactions and the tubes were heated at 95° C. for 10 mins. 15 μL of the protein samples were then resolved by 10% SDS-PAGE. The ladder was diluted 100-fold and 10 μL was loaded. Gels were destained for 30 mins using 40% methanol, 50% acetic acid, 10% water and visualized using Bio-Rad ChemiDoc MP Imaging System. Gels were stained for 20 mins in Coomassie blue and destained for 2 h prior to imaging.
Click Chemistry for MS/MS on Bacterial Lysate. Click reactions were performed on 100 μL scale. Lysates (normalized to 1.3 mg/mL) pretreated with 10 μM 7-N3 were incubated with 100 μM desthiobiotin-PEG4-alkyne (10 mM stock in DMSO), 1 mM CuBr (50 mM stock in DMSO), and 1 mM Tris[(1-benzyl-1H-1,2,3-triazol-4-yl)methyl]amine (50 mM stock in 4:1 t-BuOH:DMSO) for 1 h at 37° C. The samples were then processed for further analysis as per “Proteomic Analysis of Click-Tagged Proteins”.
Proteomic Analysis of Click-Tagged Proteins.

For data set [3], the system named is C57BL/6 mice. The conditions noted are these: mouse, in vivo. The protocol: Animal Studies. C57BL/6 mice obtained from Jackson laboratories were maintained under a strict 12 h/12 h light/dark cycle and a constant temperature (21±1° C.) and humidity (55-65%). All experiments were conducted on 8-9 week old male mice.
Mice were fed powdered standard chow diet (LabDiet, catalog no. 5053) for the duration of the experiment. Mice were split into two groups of ten mice each and were maintained on powdered chow (control group) or fed powdered chow containing 0.09% (w/w) GR-7 (experimental group). Feces from these mice were collected as described above at 8 h. Mice were euthanized after 30 hours of access to the powdered chow with or without GR-7 using carbon dioxide. Blood samples were collected by cardiac puncture and placed in EDTA-coated tubes on ice. The liver and cecal contents were then collected from each mouse, snap frozen in liquid nitrogen, and stored at −80° C. until further analysis. […]
BSH Activity in Feces. BSH activity in fecal pellets were quantified using a modified version of a published method.^45 Fecal pellets (approximately 10-20 mg) were suspended in buffer (10% PBS, 90% sodium acetate at pH 5.2) containing 100 μM (GCDCA-d4) to obtain a concentration of 20 mg/mL. […] The concentration of product detected from these assays were reported directly.
Quantification of Bile Acids in Tissues and Plasma. […]
Quantification of bacterial 16S rDNA copy number. […]

Data set [4] relates to differentiated Caco-2 cells. Nature of the data set: Epithelial permeability assay (4 kDa FITC-dextran).

“Also recorded” adds a separate entry of the source. Like-named read-outs stand apart in the source and are kept apart here. Some results are limits rather than exact numbers.

For `C[C@H](CCC(=O)CF)[C@H]1CC[C@H]2[C@@H]3CC[C@@H]4C[C@H](OS(=O)(=O)O)CC[C@]4(C)[C@H]3CC[C@]12C` [Compound 3S-LCA-FMK, 3-sulfated-lithocholic acid-fluoromethyl ketone], the food intake entry in the data set with conventional mice is given as “significant decrease in food consumption; also recorded: reduces food intake”. In addition, the “BSH activity in feces” value with C57BL/6 mice [1] (0.03% weight/weight in chow ad libitum for 7 days) is listed as “significantly reduced”. The “detection in circulating plasma” value in the data set with C57BL/6 mice [1] (male, C57Bl/6, mouse) was “No 3S-LCA-FMK was detectable”; with C57BL/6 mice [1] (mouse), “not detectable”.

For `C[C@H](CCC(=O)CF)[C@H]1CC[C@H]2[C@@H]3[C@H](O)C[C@@H]4C[C@H](N=[N+]=[N-])CC[C@]4(C)[C@H]3CC[C@]12C` [Compound 7-N3], the “BSH inhibition in conventional mouse feces (in words)” value in data set [2] (7-N3, concentration not given) is listed as “significant BSH inhibition; also recorded: potently inhibited BSH activity in mouse feces”. Further, the “in-gel fluorescence labeling in NCI-H716 cells” value with NCI-H716 cells (10 μM, 1 h, click with Fluor 488-alkyne) is reported as “no significant labeling of proteins; also recorded: no enrichment of any band”. The “enrichment of proteins in probe-treated NCI-H716 lysates” value in the data set on NCI-H716 cells (label-free LC-MS/MS) is at most 2 fold. For the same compound, the “in-gel fluorescence labeling in B. adolescentis L2-32” value with B. adolescentis BSH (10 μM, 1 hour, click with Fluor 488-alkyne) is on record as “labeling of only one protein; also recorded: Only one fluorescent band was visible”. For the same compound, the “enrichment of BSH in gel bands, probe- versus vehicle-treated cultures” value with B. adolescentis BSH (desthiobiotin-alkyne, streptavidin pulldown, in-gel digestion, LC-MS/MS, semi-quantitative) is recorded as 4.5 fold. In addition, the “enrichment of other bacterial proteins” value in the data set with B. adolescentis BSH (label-free LC-MS/MS, biological triplicate) is listed as at most 2 fold. Also, in the data set with B. adolescentis BSH (on-bead digestion, label-free LC-MS/MS), the “enrichment of BSH in probe-treated cultures” value is 3.6 fold.

In the case of `C[C@H](CCC(=O)CF)[C@H]1CC[C@H]2[C@@H]3[C@H](O)C[C@@H]4C[C@H](OS(=O)(=O)[O-])CC[C@]4(C)[C@H]3CC[C@]12C.[Na+]` [GR-7], in data set [2] (20 μM or 60 μM of GR-7, 30 mins, GCDCA-d4 100 μM, 18 hours), the “BSH inhibition in mouse fecal slurry (in words)” value was “remains a potent pan-BSH inhibitor; also recorded: inhibited BSH activity in a fecal slurry”. In the data set on C57BL/6 mice [3], the detection in feces result is reported as “detected” and the “microbial biomass (16S rDNA copies/g in cecal contents)” value is “did not affect microbial biomass”. The “epithelial barrier integrity of Caco-2 cells” value in data set [4] (60 μM) is “did not affect epithelial barrier integrity”. Also, the “epithelial monolayer integrity (passive diffusion of 4 kDa FITC-dextran)” value in data set [4] (differentiated Caco-2, apical chamber, 6 or 12 h) is “did not compromise epithelial monolayer integrity”.
